Assay results from US20120093809A1, “USE OF ALKANOYL L-CARNITINE IN COMBINATION WITH CHEMOTHERAPEUTIC AGENTS FOR THE TREATMENT OF NEOPLASMS” (priority 2008, published 2012).

Columns and labels:
tumour growth = conditions: WO/2000/06134, cited from earlier work
[1] = test system: NCI-H460 non-small cell lung carcinoma; experiment: Antitumor effect of carboplatin with and without acetyl L-carnitine, s.c. xenograft
Protocol: Treatments started three days after cancer injection. Mice were subdivided (8 mice/group) in the following experimental groups: vehicle receiving only sterile water, carboplatin 40 mg/kg, i.p. q4d/wx3w; acetyl L-carnitine (200 mg/kg po, qdx5/wx3w)+carboplatin.
Body weight recording was carried out through the study.

[2] = test system: A2780/Dx multidrug-resistant ovarian carcinoma
Protocol: A2780/Dx cancer cells were injected subcutaneously (s.c.) in the right flank of CD1 nude mice (5×10^6/100 μL/mouse). Treatments started eleven days after cancer injection.
Mice were subdivided (10 mice/group) in the following experimental groups: doxorubicin was given intravenously according to the schedule q7dx3 and acetyl-L-carnitine according to the schedule qdx5/wx3w.
Acetyl L-carnitine was administered immediately before the agent given in combination.
To evaluate the anticancer activity, tumor diameters were measured with a Vernier caliper. The formula TV (mm^3)=[length (mm)×width (mm)^2]/2 was used, where the width and the length are the shortest and the longest diameters of each cancer, respectively. Efficacy of the molecule was evaluated as tumor volume inhibition (TVI %) according to the equation: % TVI=100-[(mean cancer weight of treated mice/mean cancer weight of control group)×100]. and Log10 cell kill (LCK) calculated by the formula LCK=(T−C)/3.32×DT, where T and C were the mean times (days) required for treated (T) and control (C) tumors, respectively, to reach 1 cm^3, and DT was the doubling time of control tumors. When tumors reached a volume of about 2 cm^3, mice were sacrificed by cervical dislocation.

[3] = test system: NCI-H460 non-small cell lung carcinoma; experiment: Antitumor activity of cisplatin in combination with L-carnitine, s.c. xenograft; format: in vivo; conditions: L-carnitine 200 mg/kg po given chronically
Protocol: Treatments started three days after tumor injection.
To evaluate the antitumor activity, tumor diameters were measured with a Vernier caliper.
When tumors reached a volume of 1-2 cm^3, mice were sacrificed by cervical dislocation. Body weight recording was carried out through the study and mortality was noted.

lung metastases [4] = conditions: WO/2000/06134; ALC orally 100 mg/kg; cited from earlier work
[5] = test system: SJSA-1 (with amplification of mdm2) osteosarcoma cells; experiment: Antiproliferative activity of cisplatin with and without acetyl L-carnitine, MTT assay; format: cell-based
Protocol: (§1) Moreover, the activity was also evaluated on two prostate tumor cell lines with p53 wild-type (LnCaP) or p53 null (PC3). […] The number of surviving cells was finally determined by the tetrazolium salt (MTT) assay, as described by Hansen M B et al. (Re-examination and further development of a precise and rapid dye method for measuring cell growth/cell kill. J. Immunol. Methods 119: 203-10, 1989). […] In this case the statistical comparison was performed by Mann-Whitney test.
(§2) To test the effects of the compounds on cell growth, tumor cells were seeded in 96-well tissue culture plates at approximately 10% confluence and were allowed to attach and recover for at least 24 h. Tumor cells were exposed to compounds for 72 h or 6 days in 0.1% FBS at 37° C., then medium culture was removed and 100 μL/well of medium were added containing 25 μL/well of a solution 5 mg/mL MTT (final 1 mg/mL). Plates were kept at. 37° C. in incubator with 5% CO2 for 2 h for the formation of blu chrystals. The supernatant was removed and 100 μL/well of lysant medium were added. Plates were kept under stirring for 60 min. The survival cell was determined as optical density by a Multiskan spectrofluorimeter at 570 nm.

[6] = test system: LnCaP prostate carcinoma cells (p53 wild-type); experiment: as above; format: cell-based; conditions: acetyl L-carnitine 10 mM; ≧72 h of exposure; 0.1% FBS
Protocol: as §1, §2

[7] = test system: NCI-H1650 non-small cell lung carcinoma cells; experiment: as above; format: cell-based
Protocol: as §1, §2

[8] = test system: NCI-H460 non-small cell lung carcinoma cells; experiment: as above; format: cell-based
Protocol: as §1
as §2, with “Tumor cells were exposed to compounds for 72 h or 6 days in 0.1% FBS at 37° C., then medium culture was removed and 100 μL/well of medium were added containing 25 μL/well of a solution 5 mg/mL MTT (final 1 mg/mL).” left out

[9] = test system: A2780/Dx multidrug-resistant ovarian carcinoma cells; experiment: as above; format: cell-based
Protocol: as §1
as §2, with “Tumor cells were exposed to compounds for 72 h or 6 days in 0.1% FBS at 37° C., then medium culture was removed and 100 μL/well of medium were added containing 25 μL/well of a solution 5 mg/mL MTT (final 1 mg/mL).” left out

lung metastases [10] = conditions: ALC 100 mg/kg/day p.o.; cited from earlier work
[11] = day +31, carboplatin 40 mg/kg ip q4d/wx3w, alone or with acetyl L-carnitine 200 mg/kg po qdx5/wx3w
[12] = day +24, doxorubicin 6 mg/kg iv, alone or with acetyl L-carnitine 200 mg/kg po
[13] = acetyl L-carnitine 1 mM, same schedule and serum conditions
[14] = acetyl L-carnitine 10 mM, 72 h, medium with 10% FBS
[15] = acetyl L-carnitine 10 mM, ≧72 h of exposure, 0.1% FBS

## CC(=O)O[C@H]1C(=O)[C@@]2(C)[C@H]([C@H](OC(=O)c3ccccc3)[C@]3(O)C[C@H](OC(=O)[C@H](O)[C@@H](NC(=O)c4ccccc4)c4ccccc4)C(C)=C1C3(C)C)[C@]1(OC(C)=O)CO[C@@H]1C[C@@H]2O [Paclitaxel]
Tumour growth; ALC orally 100 mg/kg where combined
  TVI: 88%

## N.N.O=C([O-])C1(C(=O)[O-])CCC1.[Pt+2] [CARBOPLATIN, Carboplatin]
[1]; Log10 cell kill, DT = 3.6 days, carboplatin 40 mg/kg ip, alone or with acetyl L-carnitine 200 mg/kg po
  LCK (1 cm^3): 0.66
[1]; carboplatin 40 mg/kg ip q4d/wx3w, alone or with acetyl L-carnitine 200 mg/kg po qdx5/wx3w
  BWL %: 1%
[1]; [11]
  TV ± SE +31: *704 ± 254 mm^3
  TVI % +31: 48%
[1]; day +31, carboplatin 40 mg/kg ip q4d/wx3w, alone or with acetyl L-carnitine 200 mg/kg po qdx5/wx3w, listed as carboplatin
  TVI % +31: about 48%
[1]; dead/total mice, carboplatin 40 mg/kg ip q4d/wx3w, alone or with acetyl L-carnitine 200 mg/kg po qdx5/wx3w
  LETHAL: 0/8

## COc1cccc2c1C(=O)c1c(O)c3c(c(O)c1C2=O)C[C@@](O)(C(=O)CO)C[C@@H]3O[C@H]1C[C@H](N)[C@H](O)[C@H](C)O1 [Doxorubicin, doxorubicin]
[2]; DT = 2.9 days, doxorubicin 6 mg/kg iv, alone or with acetyl L-carnitine 200 mg/kg po
  LCK (1 cm^3): 0.7
[2]; [12]
  TV ± SE +24: 1059 ± 195 mm^3
  TVI % ± SE +24: **60 ± 11%
[2]; dead/total mice, doxorubicin 6 mg/kg iv, alone or with acetyl L-carnitine 200 mg/kg po
  Leth.: 0/10
[2]; doxorubicin 6 mg/kg iv q7dx3, alone or with acetyl L-carnitine 200 mg/kg po qdx5/wx3w
  BWL % max: 0%

## C[N+](C)(C)C[C@H](O)CC(=O)[O-] [L-carnitine]
[3]
  potentiation of the cytotoxic activity of cisplatin: not able to potentiate the cytotoxic activity of cisplatin

## CC(=O)O[C@H](CC(=O)[O-])C[N+](C)(C)C [acetyl L-carnitine]
Tumour growth; ALC orally 100 mg/kg
  effect on tumour growth: no effect on tumour growth
Lung metastases [4]
  effect on the formation of lung metastases: significant inhibitory effect on the formation of lung metastases
[5]; [13]
  potentiation of the cytotoxic activity of cisplatin: ineffective
[5]; [14]
  potentiation of the cytotoxic activity of cisplatin: failed to increase cisplatin anti-proliferative activity
[5]; acetyl L-carnitine 10 mM, 72 h of exposure, 0.1% FBS
  potentiation of the cytotoxic activity of cisplatin: able to potentiate the cytotoxic activity of cisplatin
[6]
  potentiation of the cytotoxic activity of cisplatin: able to potentiate the cytotoxic activity of cisplatin
[7]; [13]
  potentiation of the cytotoxic activity of cisplatin: ineffective
[7]; [14]
  potentiation of the cytotoxic activity of cisplatin: failed to increase cisplatin anti-proliferative activity
[7]; [15]
  potentiation of the cytotoxic activity of cisplatin: able to potentiate the cytotoxic activity of cisplatin
[8]; [13]
  potentiation of the cytotoxic activity of cisplatin: ineffective
[8]; [14]
  potentiation of the cytotoxic activity of cisplatin: failed to increase cisplatin anti-proliferative activity
[8]; [15]
  potentiation of the cytotoxic activity of cisplatin: able to potentiate the cytotoxic activity of cisplatin
[9]; [13]
  potentiation of the cytotoxic activity of cisplatin: ineffective
[9]; [14]
  potentiation of the cytotoxic activity of cisplatin: failed to increase cisplatin anti-proliferative activity
[9]; [15]
  potentiation of the cytotoxic activity of cisplatin: able to potentiate the cytotoxic activity of cisplatin
Lung metastases [10]
  protection from toxicity of the antitumor drug: protects the mice from the lethal toxicity and from the neurotoxicity
